This is an account of results in patent publication US10040788B2, “1,3,4-thiadiazole compounds and their use in treating cancer” (AstraZeneca AB, priority 2014, dated 2018).

Read-outs that look alike come from different tables or passages of the source.

One assay deals with GLS1 (Homo sapiens (Human), UniProt O94925). Description: GLS Enzyme Potency Assay (Glutamate Oxidase/AmplexRed coupled assay). Type of assay: biochemical. Conditions: 6His tagged GLS protein (amino acids 63-669); geometric mean where repeated. The source says: The following assays were used to measure the effects of the compounds of the present invention: a) GLS Enzyme Potency Assay; b) GLS Cell Potency Assay; c) GLS Cell Proliferation Assay; and d) Mouse Xenograft Model. During the description of the assays, generally: • i. The following abbreviations have been used: CO2=Carbon dioxide; DMEM=Dulbecco's Modified Eagle Medium; DMSO=Dimethyl sulphoxide; EDTA=Ethylenediaminetetraacetic acid; EGTA=Ethylene glycol tetraacetic acid; FCS=Foetal calf serum; h=Hour(s); NBS=Non-binding surface; SDS=Sodium dodecyl sulphate; r.t.=room temperature; TRIS=Tris(Hydroxymethyl)aminomethane. • ii. IC50 values were calculated using a smart fitting model in Genedata. […] Assay a): GLS Enzyme Potency Assay
GLS1, sequence (O94925 63-669): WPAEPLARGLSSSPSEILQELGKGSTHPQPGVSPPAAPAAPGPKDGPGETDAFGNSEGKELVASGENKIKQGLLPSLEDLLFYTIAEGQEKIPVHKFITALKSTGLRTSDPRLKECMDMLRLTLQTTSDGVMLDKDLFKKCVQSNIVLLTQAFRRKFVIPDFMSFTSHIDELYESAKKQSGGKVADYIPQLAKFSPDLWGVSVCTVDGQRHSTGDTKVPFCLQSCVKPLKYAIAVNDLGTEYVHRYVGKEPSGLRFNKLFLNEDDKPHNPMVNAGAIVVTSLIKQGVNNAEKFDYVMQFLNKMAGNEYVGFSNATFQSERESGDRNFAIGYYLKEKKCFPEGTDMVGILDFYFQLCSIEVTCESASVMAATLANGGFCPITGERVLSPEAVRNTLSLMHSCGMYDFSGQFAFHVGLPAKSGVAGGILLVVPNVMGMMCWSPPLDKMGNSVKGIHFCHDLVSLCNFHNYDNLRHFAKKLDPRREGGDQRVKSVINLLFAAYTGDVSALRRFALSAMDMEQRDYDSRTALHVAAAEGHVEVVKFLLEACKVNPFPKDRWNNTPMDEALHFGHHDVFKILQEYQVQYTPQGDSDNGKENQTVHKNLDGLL
A Glutamate Oxidase/AmplexRed coupled assay was used to measure the ability of compounds to bind to and inhibit the activity of GLS1 in vitro. […] GLS1 was diluted to 2× working concentration and incubated at r.t. to allow the tetrameric/dimeric forms to reach steady state. Assay measurements were performed in buffer comprising 50 mM TRIS pH 7.8, 100 mM NaPO4, pH 7.8, 0.001% v/v Tween20. […] DMSO concentration was maintained at 2% by back filling with DMSO solution. […] 3 μL of 100 mM glutamine diluted in assay buffer was then added and the reaction incubated at r.t. for 60 minutes. […] An artefact version of the assay where the 6His tagged GLS protein and glutamine were replaced with assay buffer was also used to rule out non specific effects on the assay components.

A further assay concerns the target cellular GLS activity (Homo sapiens (Human), UniProt O94925). Description: GLS Cell Potency Assay (PC3 coupled assay measuring cellular glutamate depletion). The format is cell-based. The conditions noted are these: PC3 cells, 6 h incubation, cellular glutamate depletion; geometric mean where repeated; read-out: Assay b) GLS Cell Potency Assay IC50. The source says:
(§1) The following assays were used to measure the effects of the compounds of the present invention: a) GLS Enzyme Potency Assay; b) GLS Cell Potency Assay; c) GLS Cell Proliferation Assay; and d) Mouse Xenograft Model. During the description of the assays, generally: • i. The following abbreviations have been used: CO2=Carbon dioxide; DMEM=Dulbecco's Modified Eagle Medium; DMSO=Dimethyl sulphoxide; EDTA=Ethylenediaminetetraacetic acid; EGTA=Ethylene glycol tetraacetic acid; FCS=Foetal calf serum; h=Hour(s); NBS=Non-binding surface; SDS=Sodium dodecyl sulphate; r.t.=room temperature; TRIS=Tris(Hydroxymethyl)aminomethane. • ii. […]
Compounds were assessed for their potential to inhibit cellular GLS activity by use of a PC3 coupled assay measuring cellular glutamate depletion. […] DMSO concentration was maintained at 0.3% by back filling with DMSO solution. PC3 cells were grown in phenol free DMEM, 10% dialyzed FCS, 2 mM glutamine and following dispersal by trypsinisation were plated at 5.6×10^3 cells per well in 40 μl of growth medium directly into the 384 well assay plates containing dispensed compound. After incubation for 6 h at 37° C., 5% CO2 growth media was aspirated and cells lysed in 15 μl of buffer containing 10 mM TRIS pH7.4, 100 mM NaCl, 1 mM EDTA, 1 mM EGTA, 1 mM NaF, 20 mM Na4P2O7, 2 mM Na3VO4, 1% Triton X-100, 10% glycerol, 0.1% SDS and 0.5% deoxycholate.

The next assay relates to NCI-H1703 cells. Description: GLS Cell Proliferation Assay (NCI-H1703). The format is cell-based, human.
Source text: as §1
The ability of compounds to inhibit cell growth was measured using a 384 well plate NCI-H1703 cell proliferation assay. NCI-H1703 cells were grown in phenol red free RPMI1640, 10% FCS and 2 mM glutamine and seeded at a density of 750 cells per well in 40 μl of growth medium into clear-bottom 384 well assay plates (Corning product code 3712) and incubated for 24 h at 37° C., 5% CO2. […] DMSO concentration was maintained at 0.3% by back filling with DMSO solution. Plates were incubated for 5 days at 37° C., 5% CO2, Sytox Green and Saponin added to final concentration of 2 μM and 0.25% respectively and incubated for 6 h prior to analysis. Plates were read on an Acumen eX3 (TTP Labtech) using 488 nm excitation and FITC filter set (500-530 nm) for emission. IC50 values were calculated by curve fitting to max inhibition of day zero growth using GeneData software analysis.

Setting [1] is: Homo sapiens, 120 h; NCI-H1703 cells, 5 days incubation; geometric mean where repeated; read-out: Assay c) GLS Cell Proliferation Assay.

cellular GLS activity, sequence (O94925 55-669): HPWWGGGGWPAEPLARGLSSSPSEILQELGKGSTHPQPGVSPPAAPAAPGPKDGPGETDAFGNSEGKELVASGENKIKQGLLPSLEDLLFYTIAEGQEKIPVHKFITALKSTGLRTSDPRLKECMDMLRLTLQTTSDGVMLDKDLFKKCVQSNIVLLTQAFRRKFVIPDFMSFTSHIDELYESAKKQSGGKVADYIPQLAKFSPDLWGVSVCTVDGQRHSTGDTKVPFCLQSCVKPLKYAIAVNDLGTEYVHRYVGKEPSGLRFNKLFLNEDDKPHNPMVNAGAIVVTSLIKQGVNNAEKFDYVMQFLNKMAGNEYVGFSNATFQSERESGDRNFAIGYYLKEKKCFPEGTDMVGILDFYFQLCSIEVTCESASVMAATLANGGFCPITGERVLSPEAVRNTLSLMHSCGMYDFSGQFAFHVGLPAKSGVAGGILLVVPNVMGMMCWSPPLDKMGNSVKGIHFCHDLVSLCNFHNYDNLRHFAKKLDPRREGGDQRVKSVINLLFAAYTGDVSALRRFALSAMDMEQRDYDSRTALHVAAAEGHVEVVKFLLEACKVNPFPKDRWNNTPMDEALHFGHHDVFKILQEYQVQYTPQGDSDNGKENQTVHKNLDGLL

Consider `COc1ccc([C@@H](OC)C(=O)Nc2nnc(N[C@@H]3CCN(c4cccnn4)C3)s2)cc1OC` [25(b), (2R)-2-(3,4-dimethoxyphenyl)-2-methoxy-N-[5-[[(3R)-1-pyridazin-3-ylpyrrolidin-3-yl]amino]-1,3,4-thiadiazol-2-yl]acetamide], for which the IC50 amounted to 135 nM against GLS1, 56.1 nM on cellular GLS activity and 630 nM in the assay with NCI-H1703 cells (setting [1]).

With `COc1cccc([C@H](OC)C(=O)Nc2nnc(N[C@@H]3CCN(c4cncnn4)C3)s2)c1` [21(a), (2S)-2-methoxy-2-(3-methoxyphenyl)-N-[5-[[(3R)-1-(1,2,4-triazin-6-yl)pyrrolidin-3-yl]amino]-1,3,4-thiadiazol-2-yl]acetamide], the IC50 stood at 15.7 nM on cellular GLS activity and 168 nM in the assay with NCI-H1703 cells (setting [1]).

As to `CCO[C@@H](C(=O)Nc1nnc(N[C@@H]2CCN(c3nccnn3)C2)s1)c1ccccc1` [34(b), (2R)-2-ethoxy-2-phenyl-N-[5-[[(3R)-1-(1,2,4-triazin-3-yl)pyrrolidin-3-yl]amino]-1,3,4-thiadiazol-2-yl]acetamide], the figures for the IC50 against GLS1, on cellular GLS activity and with NCI-H1703 cells (setting [1]) were 1480 nM, 168 nM and 2900 nM, respectively.

For `CO[C@H](C(=O)Nc1nnc(N[C@@H]2CCN(c3cccnn3)C2)s1)c1cccc(OC(F)(F)F)c1` [Example 9(a), (2S)-2-Methoxy-N-[5-[[(3R)-1-pyridazin-3-ylpyrrolidin-3-yl]amino]-1,3,4-thiadiazol-2-yl]-2-[3-(trifluoromethoxy)phenyl]acetamide], the figures for the IC50 at GLS1, at cellular GLS activity and in the assay with NCI-H1703 cells (setting [1]) were 18.6 nM, 0.14 nM and 0.725 nM, respectively.

Consider `CO[C@@H](C(=O)Nc1nnc(N[C@@H]2CCN(c3nccnn3)C2)s1)c1cccc(OC(F)F)c1` [Example 6(b), (2R)-2-[3-(Difluoromethoxy)phenyl]-2-methoxy-N-[5-[[(3R)-1-(1,2,4-triazin-3-yl)pyrrolidin-3-yl]amino]-1,3,4-thiadiazol-2-yl]acetamide], for which the IC50 came out at 519 nM at GLS1, 37 nM at cellular GLS activity and 81.7 nM in the assay on NCI-H1703 cells (setting [1]).

`COc1cccc([C@@H](OC)C(=O)Nc2nnc(N[C@@H]3CCN(c4nccnn4)C3)s2)c1` [Example 4(b), (2R)-2-Methoxy-2-(3-methoxyphenyl)-N-[5-[[(3R)-1-(1,2,4-triazin-3-yl)pyrrolidin-3-yl]amino]-1,3,4-thiadiazol-2-yl]acetamide]: the IC50 at GLS1 was 908 nM; at cellular GLS activity it was 76 nM; in the assay on NCI-H1703 cells (setting [1]), 262 nM.

Take `CO[C@@H](C(=O)Nc1nnc(N[C@@H]2CCN(c3nccnn3)C2)s1)c1cccc(OC(F)F)c1` [19(b), (2R)-2-[3-(difluoromethoxy)phenyl]-2-methoxy-N-[5-[[(3R)-1-(1,2,4-triazin-3-yl)pyrrolidin-3-yl]amino]-1,3,4-thiadiazol-2-yl]acetamide]: the IC50 at GLS1 was 519 nM; at cellular GLS activity, 37.4 nM.

In the case of `CCO[C@H](C(=O)Nc1nnc(N[C@@H]2CCN(c3nccnn3)C2)s1)c1ccc(F)c(OC)c1` [33(a), (2S)-2-ethoxy-2-(4-fluoro-3-methoxy-phenyl)-N-[5-[[(3R)-1-(1,2,4-triazin-3-yl)pyrrolidin-3-yl]amino]-1,3,4-thiadiazol-2-yl]acetamide], the IC50 is 50.2 nM on GLS1, 7.13 nM on cellular GLS activity and 168 nM in the assay on NCI-H1703 cells (setting [1]).

As to `COc1cccc([C@H](OC)C(=O)Nc2nnc(N[C@@H]3CCN(c4cccnn4)C3)s2)c1` [Example 5(a), (2S)-2-Methoxy-2-(3-methoxyphenyl)-N-[5-[[(3R)-1-pyridazin-3-ylpyrrolidin-3-yl]amino]-1,3,4-thiadiazol-2-yl]acetamide], the IC50 at GLS1 was determined as 21.5 nM; at cellular GLS activity, 0.19 nM; in the assay with NCI-H1703 cells (setting [1]), 3.38 nM.

Turning to `CO[C@H](C(=O)Nc1nnc(N[C@@H]2CCN(c3nccnn3)C2)s1)c1cccc(OC(F)F)c1` [19(a), (2S)-2-[3-(difluoromethoxy)phenyl]-2-methoxy-N-[5-[[(3R)-1-(1,2,4-triazin-3-yl)pyrrolidin-3-yl]amino]-1,3,4-thiadiazol-2-yl]acetamide], the IC50 amounted to 85.1 nM against GLS1; 2.54 nM on cellular GLS activity; 16.6 nM in the assay with NCI-H1703 cells (NCI-H1703 cells, 5 days incubation; geometric mean where repeated; read-out: Assay c) GLS Cell Proliferation Assay).

As to `COc1cc([C@H](OC)C(=O)Nc2nnc(N[C@@H]3CCN(c4cccnn4)C3)s2)ccc1F` [Example 14(a), (2S)-2-(4-Fluoro-3-methoxy-phenyl)-2-methoxy-N-[5-[[(3R)-1-pyridazin-3-ylpyrrolidin-3-yl]amino]-1,3,4-thiadiazol-2-yl]acetamide], the IC50 on GLS1 turned out to be 25.5 nM; on cellular GLS activity, 0.78 nM; with NCI-H1703 cells (setting [1]) it was 15.1 nM.

For `CCO[C@H](C(=O)Nc1nnc(N[C@@H]2CCN(c3cccnn3)C2)s1)c1ccccc1` [Example 10(a), (2S)-2-Ethoxy-2-phenyl-N-[5-[[(3R)-1-pyridazin-3-ylpyrrolidin-3-yl]amino]-1,3,4-thiadiazol-2-yl]acetamide], the IC50 at cellular GLS activity is 0.91 nM; with NCI-H1703 cells (setting [1]), 10.9 nM.

For `CO[C@H](C(=O)Nc1nnc(N[C@@H]2CCN(c3cncnn3)C2)s1)c1cccc(OC(F)(F)F)c1` [22(a), (2S)-2-methoxy-N-[5-[[(3R)-1-(1,2,4-triazin-6-yl)pyrrolidin-3-yl]amino]-1,3,4-thiadiazol-2-yl]-2-[3-(trifluoromethoxy)phenyl]acetamide], the IC50 in the assay on NCI-H1703 cells (setting [1]) came to 10.7 nM.

Take `CO[C@@H](C(=O)Nc1nnc(N[C@@H]2CCN(c3nccnn3)C2)s1)c1cccc(OC(F)(F)F)c1` [Example 8(b), (2R)-2-Methoxy-N-[5-[[(3R)-1-(1,2,4-triazin-3-yl)pyrrolidin-3-yl]amino]-1,3,4-thiadiazol-2-yl]-2-[3-(trifluoromethoxy)phenyl]acetamide]: the IC50 in the assay on NCI-H1703 cells (setting [1]) was determined as 36.8 nM.

For `CCO[C@H](C(=O)Nc1nnc(N[C@@H]2CCN(c3cccnn3)C2)s1)c1cccc(OC(F)(F)F)c1` [Example 16(a), (2S)-2-Ethoxy-N-[5-[[(3R)-1-pyridazin-3-ylpyrrolidin-3-yl]amino]-1,3,4-thiadiazol-2-yl]-2-[3-(trifluoromethoxy)phenyl]acetamide], the IC50 in the assay on NCI-H1703 cells (setting [1]) came to 1.32 nM.

With `CO[C@H](C(=O)Nc1nnc(N[C@@H]2CCN(c3nccnn3)C2)s1)c1ccccc1` [Example 1(a), (2S)-2-Methoxy-2-phenyl-N-[5-[[(3R)-1-(1,2,4-triazin-3-yl)pyrrolidin-3-yl]amino]-1,3,4-thiadiazol-2-yl]acetamide], in the assay with NCI-H1703 cells (setting [1]), the IC50 stood at 53.5 nM.

Consider `CO[C@@H](C(=O)Nc1nnc(N[C@@H]2CCN(c3nccnn3)C2)s1)c1ccc(F)cc1` [17(b), (2R)-2-(4-fluorophenyl)-2-methoxy-N-[5-[[(3R)-1-(1,2,4-triazin-3-yl)pyrrolidin-3-yl]amino]-1,3,4-thiadiazol-2-yl]acetamide], for which the IC50 in the assay with NCI-H1703 cells (setting [1]) turned out to be 120 nM.

Consider `[2H]C([2H])([2H])O[C@H](C(=O)Nc1nnc(N[C@@H]2CCN(c3cccnn3)C2)s1)c1ccccc1` [18(a), (2S)-2-phenyl-N-[5-[[(3R)-1-pyridazin-3-ylpyrrolidin-3-yl]amino]-1,3,4-thiadiazol-2-yl]-2-(trideuteriomethoxy)acetamide], for which, in the assay on NCI-H1703 cells (setting [1]), the IC50 was 1.88 nM.
